{"source": "patent US20130115256A1", "about": "“METHODS FOR TREATING OR PREVENTING VASCULAR GRAFT FAILURE” (priority 2010, published 2013)", "key": {"[1]": {"molecular_target": "T1, MK2 (Homo sapiens, UniProt P49137)", "T1 construct": "purchased Millipore (IC50 Profiler Express / KinaseProfiler service)", "T1 sequence (P49137 whole entry, species assumed)": "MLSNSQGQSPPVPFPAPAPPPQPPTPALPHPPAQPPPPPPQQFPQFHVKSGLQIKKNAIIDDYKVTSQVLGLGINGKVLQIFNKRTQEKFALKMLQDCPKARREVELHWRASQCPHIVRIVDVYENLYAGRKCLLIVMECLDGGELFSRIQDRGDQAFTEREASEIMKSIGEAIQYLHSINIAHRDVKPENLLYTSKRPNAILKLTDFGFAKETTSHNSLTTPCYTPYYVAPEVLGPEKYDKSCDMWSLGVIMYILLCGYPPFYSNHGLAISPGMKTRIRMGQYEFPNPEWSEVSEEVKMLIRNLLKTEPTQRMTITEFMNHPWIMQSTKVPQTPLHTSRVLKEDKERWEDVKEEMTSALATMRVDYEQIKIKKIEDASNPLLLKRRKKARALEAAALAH", "test": "MK2 radiometric kinase assay", "format": "biochemical", "description": "A commercial radiometric assay service was used to test the specificity and potency of MMI-0100 ([…]; SEQ ID NO: 1) by measuring its half maximal inhibitory concentrations (IC50). This quantitative assay measures how much MK2 inhibitor (MMI-0100; […] (SEQ ID NO: 1)) is needed to inhibit 50% of a given biological process or component of a process (i.e., an enzyme, cell, or cell receptor). Specifically, in these assays, a positively charged substrate is phosphorylated with a radiolabeled phosphate group from an ATP if the kinase is not inhibited by an inhibitor peptide. The positively charged substrate then is attracted to a negatively charged filter membrane, quantified with a scintillation counter, and compared to a 100% activity control. ATP concentrations within 15 μM of the apparent Km for ATP were chosen since an ATP concentration near the Km may allow for the kinases to have the same relative amount of phosphorylation activity. […]\nFor the MK2 radiometric assay, 5-10 mU of MK2 was incubated with 50 mM Na b-glycerophosphate pH 7.5, 0.1 mM EGTA, 30 μM KKLNRTLSVA (SEQ ID NO: 34; a substrate peptide for MK2), 10 mM MgAcetate, and 10 μM of [y-^33P-ATP] in a final reaction volume of 25 μl. […] The washed P30 filtermat was dried and its radioactivity was measured by scintillation counter.\nIC50 values for inhibitor peptides were determined using Millipore's IC50 Profiler Express service. […]"}, "[2]": {"molecular_target": "T2, MKK4 (Homo sapiens, UniProt P45985)", "T2 construct": "purchased Millipore (KinaseProfiler service)", "T2 sequence (P45985 1-399)": "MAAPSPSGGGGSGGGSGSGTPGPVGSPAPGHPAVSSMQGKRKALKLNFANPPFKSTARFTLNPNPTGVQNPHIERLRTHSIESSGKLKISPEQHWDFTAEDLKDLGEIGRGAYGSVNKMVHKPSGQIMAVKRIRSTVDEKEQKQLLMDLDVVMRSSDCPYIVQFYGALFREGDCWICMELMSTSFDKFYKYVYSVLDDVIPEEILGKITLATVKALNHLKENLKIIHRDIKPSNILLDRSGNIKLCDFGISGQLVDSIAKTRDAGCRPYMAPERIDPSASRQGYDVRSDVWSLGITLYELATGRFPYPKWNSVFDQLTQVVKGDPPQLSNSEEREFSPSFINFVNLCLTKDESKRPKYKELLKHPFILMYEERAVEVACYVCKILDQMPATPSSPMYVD", "test": "MKK4 radiometric kinase assay", "format": "biochemical", "details": "MMI-0100 100 μM; remaining kinase activity", "description": "(§1) A commercial radiometric assay service was used to test the specificity and potency of MMI-0100 ([…]; SEQ ID NO: 1) by measuring its half maximal inhibitory concentrations (IC50). This quantitative assay measures how much MK2 inhibitor (MMI-0100; […] (SEQ ID NO: 1)) is needed to inhibit 50% of a given biological process or component of a process (i.e., an enzyme, cell, or cell receptor). Specifically, in these assays, a positively charged substrate is phosphorylated with a radiolabeled phosphate group from an ATP if the kinase is not inhibited by an inhibitor peptide. The positively charged substrate then is attracted to a negatively charged filter membrane, quantified with a scintillation counter, and compared to a 100% activity control. ATP concentrations within 15 μM of the apparent Km for ATP were chosen since an ATP concentration near the Km may allow for the kinases to have the same relative amount of phosphorylation activity. The individual conditions for each radiometric assay are as follows.\nThe reaction was initiated by the addition of the MgATP. After incubation for 40 minutes at room temperature, 5 μl of the incubation mix was used to initiate the JNK radiometric assay described above.\n(§2) IC50 values for inhibitor peptides were determined using Millipore's IC50 Profiler Express service. The IC50 value was estimated from a 10-point curve of one-half log dilutions. […]"}, "[3]": {"molecular_target": "T3, MKK3 (Homo sapiens, UniProt P46734)", "T3 sequence (P46734 1-347)": "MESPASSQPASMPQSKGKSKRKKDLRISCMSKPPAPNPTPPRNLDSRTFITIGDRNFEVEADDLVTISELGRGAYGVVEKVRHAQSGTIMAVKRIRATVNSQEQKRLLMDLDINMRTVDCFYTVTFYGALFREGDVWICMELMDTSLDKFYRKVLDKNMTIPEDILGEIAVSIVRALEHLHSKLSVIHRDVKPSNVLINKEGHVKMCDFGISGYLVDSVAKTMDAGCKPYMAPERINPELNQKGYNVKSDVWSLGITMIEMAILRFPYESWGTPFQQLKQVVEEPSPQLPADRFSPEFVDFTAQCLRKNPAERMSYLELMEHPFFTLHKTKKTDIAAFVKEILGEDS", "test": "MKK3 kinase activity (data not shown)", "format": "biochemical", "details": "concentration that inhibits >95% of MK2", "description": "as §1, §2"}, "[4]": {"system": "mouse lung endothelial cells (MLEC)", "test": "NO analysis (nitrite chemiluminescence)", "format": "cell-based", "details": "physiological doses; 24 hours", "procedure": "To measure nitric oxide (NO) production, conditioned medium from mouse lung endothelial cells (MLEC) was examined at 24 hours after treatment with MMI-0100 ([…]; SEQ ID NO: 1). The medium was processed for the measurement of nitrite (NO2) by a NO-specific chemiluminescence analyzer (Sievers) as previously described (Muto, A. et al., J. Exp. Med., 2011, 208(3): 561-575, incorporated herein by reference in its entirety.)."}}}
{"sequence": "YARAAARQARAKALARQLGVAA [MMI-0100]", "values": [{"measurement": "Percent Activity, MK2", "setting": "[1]; MMI-0100 100 μM, remaining kinase activity", "result": "<5", "unit": "%"}, {"measurement": "inhibition of MK2 activity", "setting": "[1]; concentration used for specificity profiling (Table 2, 100 μM)", "result": "> 95", "unit": "%"}, {"measurement": "Percent Activity, MKK4", "setting": "[2]", "result": 90, "unit": "%"}, {"measurement": "reduction in MKK3 activity", "setting": "[3]", "result": "no reduction"}, {"measurement": "Nitric oxide (NO) production", "setting": "[4]", "result": "not suppressed, and was even enhanced"}]}
